Laboratory results taken from ChEMBL document CHEMBL3045592, “Studies of O,O-dimethyl α-(2,4-dichlorophenoxyacetoxy)ethylphosphonate (HW02) as a new herbicide. 1. Synthesis and herbicidal activity of HW02 and analogues as novel inhibitors of pyruvate dehydrogenase complex” (J Agric Food Chem, 2011).

Key:
Cucumis sativus [1] = experiment: Herbicidal activity against Cucumis sativus Jin 4 (cucumber) assessed as inhibition of root growth after 3 days; assay type: functional, organism-based; details: Jin 4, 72 h
Cucumis sativus [2] = experiment: Herbicidal activity against Cucumis sativus Jin 4 (cucumber) assessed as inhibition of stem growth after 3 days; assay type: functional, organism-based; details: Jin 4, 72 h
Medicago sativa [3] = experiment: Pre-emergence herbicidal activity against Medicago sativa (alfalfa) assessed as growth inhibition at 1500 ai g/ha after 20 days by green house test; assay type: functional
Amaranthus retroflexus [4] = experiment: Post-emergence herbicidal activity against Amaranthus retroflexus assessed as growth inhibition at 1500 ai g/ha after 20 days by green house test; assay type: functional
[5] = test system: Brassica rapa subsp. oleifera; experiment: Post-emergence herbicidal activity against Brassica rapa subsp. oleifera Si Yue Man assessed as growth inhibition at 1500 ai g/ha after 20 days by green house test; assay type: functional
Digitaria sanguinalis [6] = experiment: Post-emergence herbicidal activity against Digitaria sanguinalis (hairy crabgrass) assessed as growth inhibition at 1500 ai g/ha after 20 days by green house test; assay type: functional
Medicago sativa [7] = experiment: Post-emergence herbicidal activity against Medicago sativa (alfalfa) assessed as growth inhibition at 1500 ai g/ha after 20 days by green house test; assay type: functional
Echinochloa crus-galli [8] = experiment: Pre-emergence herbicidal activity against Echinochloa crus-galli (barnyard grass) assessed as growth inhibition at 1500 ai g/ha after 20 days by green house test; assay type: functional
Digitaria sanguinalis [9] = experiment: Pre-emergence herbicidal activity against Digitaria sanguinalis (hairy crabgrass) assessed as growth inhibition at 1500 ai g/ha after 20 days by green house test; assay type: functional
Echinochloa crus-galli [10] = experiment: Post-emergence herbicidal activity against Echinochloa crus-galli (barnyard grass) assessed as growth inhibition at 1500 ai g/ha after 20 days by green house test; assay type: functional
Amaranthus retroflexus [11] = experiment: Pre-emergence herbicidal activity against Amaranthus retroflexus assessed as growth inhibition at 1500 ai g/ha after 20 days by green house test; assay type: functional
[12] = test system: Brassica rapa subsp. oleifera; experiment: Pre-emergence herbicidal activity against Brassica rapa subsp. oleifera Si Yue Man assessed as growth inhibition at 1500 ai g/ha after 20 days by green house test; assay type: functional

SMILES	IC50 (Cucumis sativus [1]) [µM]	IC50 (Cucumis sativus [2]) [µM]	growth inhibition (GI) (Medicago sativa [3])	growth inhibition (GI) (Amaranthus retroflexus [4])	growth inhibition (GI) [5]	growth inhibition (GI) (Digitaria sanguinalis [6])	growth inhibition (GI) (Medicago sativa [7])	growth inhibition (GI) (Echinochloa crus-galli [8])	growth inhibition (GI) (Digitaria sanguinalis [9])	growth inhibition (GI) (Echinochloa crus-galli [10])	growth inhibition (GI) (Amaranthus retroflexus [11])	growth inhibition (GI) [12]
CCCC(OC(=O)COc1ccc(Cl)cc1Cl)P(=O)(OC)OC (centres undefined)	0.0075	9.34	–	–	–	–	–	–	–	–	–	–
CCOP(=O)(COC(=O)COc1ccc(Cl)cc1Cl)OCC	–	13.4	–	–	–	–	–	–	–	–	–	–
COP(=O)(OC)C(C)OC(=O)C(C)Oc1ccc(Cl)cc1Cl (centres undefined)	1.42	6.74	–	–	–	–	–	–	–	–	–	–
COP(=O)(OC)C(OC(=O)COc1ccc(Cl)cc1Cl)c1cccc([N+](=O)[O-])c1 (centres undefined)	0.0034	5.02	90%	90%	90%	<=50%	90%	50%	<=50%	<=50%	90%	90%
CCOP(=O)(OCC)C(C)OC(=O)C(C)Oc1ccc(Cl)cc1Cl (centres undefined)	1.08	–	–	–	–	–	–	–	–	–	–	–
CCCOP(=O)(OCCC)C(OC(=O)C(C)Oc1ccc(Cl)cc1Cl)c1ccccc1Cl (centres undefined)	12.1	164	–	–	–	–	–	–	–	–	–	–
CCOP(=O)(OCC)C(CC)OC(=O)COc1ccc(Cl)cc1Cl (centres undefined)	0.31	25.7	–	–	–	–	–	–	–	–	–	–
CCOP(=O)(OCC)C(OC(=O)COc1ccc(Cl)cc1Cl)c1ccccc1Cl (centres undefined)	1.49	–	–	–	–	–	–	–	–	–	–	–
CCCC(OC(=O)C(C)Oc1ccc(Cl)cc1Cl)P(=O)(OC)OC (centres undefined)	2.98	13.7	–	–	–	–	–	–	–	–	–	–
CCC(OC(=O)COc1ccc(Cl)cc1Cl)P(=O)(OC)OC (centres undefined)	0.327	14	90%	90%	90%	50%	90%	75%	75%	50%	90%	90%
CCCOP(=O)(OCCC)C(C)OC(=O)C(C)Oc1ccc(Cl)cc1Cl (centres undefined)	2.44	18	–	–	–	–	–	–	–	–	–	–
CCOP(=O)(OCC)C(OC(=O)COc1ccc(Cl)cc1Cl)c1ccccc1 (centres undefined)	0.0488	109	–	–	–	–	–	–	–	–	–	–
COP(=O)(OC)C(OC(=O)C(C)Oc1ccc(Cl)cc1Cl)c1ccccc1 (centres undefined)	–	30.1	–	–	–	–	–	–	–	–	–	–
COP(=O)(OC)C(OC(=O)COc1ccc(F)cc1F)c1cccc([N+](=O)[O-])c1 (centres undefined)	–	–	50%	75%	75%	50%	50%	<=50%	50%	<=50%	<=50%	<=50%
COP(=O)(OC)C(OC(=O)COc1ccc(C(F)(F)F)cc1)c1cccc([N+](=O)[O-])c1 (centres undefined)	–	–	<=50%	50%	<=50%	<=50%	<=50%	<=50%	<=50%	<=50%	<=50%	<=50%
COP(=O)(OC)C(OC(=O)COc1ccc(F)cc1Cl)c1ccccc1O (centres undefined)	–	–	90%	90%	90%	<=50%	90%	50%	90%	50%	90%	90%
COP(=O)(OC)C(C)OC(=O)COc1ccc(Cl)cc1[N+](=O)[O-] (centres undefined)	–	–	<=50%	<=50%	<=50%	<=50%	<=50%	<=50%	<=50%	<=50%	<=50%	<=50%
COP(=O)(OC)C(OC(=O)COc1ccc(C(F)(F)F)cc1[N+](=O)[O-])c1cccc([N+](=O)[O-])c1 (centres undefined)	–	–	<=50%	<=50%	<=50%	<=50%	<=50%	<=50%	<=50%	<=50%	<=50%	<=50%
COP(=O)(OC)C(C)OC(=O)COc1cccc(C)c1C (centres undefined)	–	–	75%	50%	75%	<=50%	50%	75%	<=50%	50%	75%	90%
COP(=O)(OC)C(OC(=O)COc1ccc(F)cc1F)c1ccccc1 (centres undefined)	–	–	50%	90%	<=50%	<=50%	<=50%	75%	<=50%	<=50%	50%	<=50%
COP(=O)(OC)C(C)OC(=O)COc1ccc(C)cc1 (centres undefined)	–	–	75%	50%	50%	<=50%	50%	50%	<=50%	50%	75%	75%
COP(=O)(OC)C(OC(=O)COc1ccc(Cl)cc1Cl)C(Cl)(Cl)Cl (centres undefined)	–	–	90%	90%	90%	50%	50%	90%	90%	50%	90%	90%
COP(=O)(OC)C(C)OC(=O)COc1cccc(F)c1 (centres undefined)	–	–	<=50%	<=50%	<=50%	<=50%	<=50%	<=50%	<=50%	<=50%	<=50%	<=50%
COP(=O)(OC)C(OC(=O)COc1cccc(C)c1C)c1ccccc1 (centres undefined)	–	–	75%	<=50%	75%	<=50%	50%	75%	<=50%	50%	50%	90%
CCCOP(=O)(OCCC)C(OC(=O)C(C)Oc1ccc(Cl)cc1Cl)c1ccccc1 (centres undefined)	4.52	44.3	–	–	–	–	–	–	–	–	–	–
